This note sets out measurements from PubChem BioAssay AID720513 (Broad Institute, 2013).

Results filed as inconclusive are left out.

This assay relates to U2OS PGC1a acetylation AlphaLISA, overnight. In words: activators raising PGC1a acetylation in cells, dose response, cell-based, cherry-picked samples, set 6 (AID 720513).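 Further: cells made to overexpress flag tagged PGC1a plus GCN5 acetyltransferase by viral infection.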
As to `Cc1ccc(NC(=O)CN2CCC(NC(=O)Cc3ccccc3)CC2)c(C)c1`, the AC40 was 0.507 µM.

`CCN(CC)CCCn1c(=S)[nH]c2cc(Cl)ccc2c1=O`: the AC40 is 0.631 µM.

Turning to `CCOc1ccccc1NC(=O)CSc1cn[nH]n1`, the AC40 is 2.47 µM.

With `CC(=O)c1ccc(N2CCN(C(=O)C(=O)c3c(C)[nH]c4ccccc34)CC2)cc1`, the AC40 was 0.996 µM.

On to `CCn1nc(C)c(CN2CCc3c([nH]c4ccccc34)C2C(C)(C)C)c1C` (stereo not drawn), for which the AC40 was 0.88 µM.

Consider `CC(C)(C)n1nnnc1C(CCc1ccccc1)N1CCC2(CC1)C(=O)NCN2c1ccccc1` (stereo not drawn), for which the AC40 was 5.44 µM.

Consider `COc1cccc(N(CC(=O)NCc2cccnc2)S(C)(=O)=O)c1`, for which the AC40 was 14.2 µM.

`C=CCn1c(SCC(=O)NC(=O)NCc2ccco2)nc2sc(CC)cc2c1=O`: the AC40 is 11.3 µM.

`CC1CCCCN1C(=O)/C(=C\c1ccccc1)c1ccccc1` (stereo not drawn): the AC40 is 8.57 µM.

`CCOC(=O)C1(Cc2ccccc2)CCN(Cc2cccc(OC)c2O)CC1`: the AC40 was 6.65 µM.

Regarding `Cc1ccc(Cl)cc1NC(=O)Cn1nc(-c2cccs2)ccc1=O`, the AC40 is 4.08 µM.

`N#Cc1cccc(C(c2nnnn2C2CCCC2)N2CCCCCC2)c1` (stereo not drawn): the AC40 was 1.24 µM.

With `COc1ccc(Nc2nnc(-c3ccc(C(=O)NCCO)cc3)c3ccccc23)cc1`, the AC40 is 3.07 µM.

For the molecule `Cc1cccc(Nc2nnc(-c3ccc(C(=O)N4C[C@H]5C[C@H](C4)c4cccc(=O)n4C5)cc3)c3ccccc23)c1`, the AC40 is 11.2 µM.

Take `C[C@H]1CN([C@@H](C)CO)C(=O)c2cccc(NC(=O)Nc3cccc4ccccc34)c2O[C@H]1CN(C)Cc1ccc(C(=O)Nc2ccccc2N)cc1`: the AC40 was 7.53 µM.

Consider `Cc1ccc2oc(-c3ccc(NC(=O)c4cccnc4)cc3)nc2c1`, for which the AC40 was 2.03 µM.

With `CCCCSc1ccc(NC(=O)c2cccnc2)cc1`, the AC40 is 1.78 µM.

With `N#Cc1ccc(C(=O)CSc2nnc(-c3ccc(C(F)(F)F)cn3)s2)cc1`, the AC40 was 17.8 µM.

With `O=S(=O)(c1ccc(Cl)cc1)N1[C@@H]2CNC[C@H]1C2c1ccc(-c2cccc(F)c2)cc1` (stereo partly drawn), the AC40 was < 2.6 µM.

As for `O=c1[nH]nc(SCCS(=O)(=O)c2ccc(F)cc2)n1-c1ccccc1`, the AC40 is 15.2 µM.

Turning to `CCOC(=O)c1c(NC(=O)CSc2cn(CC)c3ccccc23)sc2c1CCC2`, the AC40 is 6.55 µM.

On to `Cc1c(C(=O)OCC(=O)c2c(N)n(CC(C)C)c(=O)n(C)c2=O)oc2ccccc12`, for which the AC40 was 8.24 µM.

For `O=C(CCCCCN1C(=O)c2cccc3cccc(c23)C1=O)NCc1cccnc1`, the AC40 is 0.207 µM.

`CC(=O)Nc1ccc(Nc2ncnc3c2cnn3-c2ccc(C)cc2C)cc1`: the AC40 is 2.53 µM.

For `c1ccc(Cn2nnnc2C(c2cccs2)N2CCCCCC2)cc1` (stereo not drawn), the AC40 is 14.2 µM.

In the case of `CCOc1ccc2c(c1)C(C)=CC(C)(C)N2S(=O)(=O)c1ccc(C)cc1`, the AC40 is 0.781 µM.

As to `CCCCCOC(=O)Cc1c(O)c2ccccc2n(C)c1=O`, the AC40 was 9.64 µM.

With `CC(Oc1ccc(Cl)cc1Cl)c1nc(-c2ccc(NC(=O)c3cccnc3)cc2)no1` (stereo not drawn), the AC40 was 0.581 µM.

Take `CCOC(=O)C1=CC[C@@H](c2ccc(F)cc2)N(S(=O)(=O)c2ccc(C)cc2)[C@H]1c1ccccc1`: the AC40 was 3.22 µM.

Take `O=C(Nc1ccc2c(c1)OCO2)C1CCN(c2ccc(S(=O)(=O)N3CCOCC3)cc2)CC1`: the AC40 is 9.15 µM.

As for `O=C(CC1SC(=NCc2ccccc2)NC1=O)Nc1ccccc1` (stereo not drawn), the AC40 is 0.632 µM.

Consider `COc1ccc(-c2nc3c(C)cc(Br)cn3c2Cc2ccc(C)cc2)cc1OC`, for which the AC40 is 8.31 µM.

With `CCC(CC)C(=O)c1c[nH]c(C(=O)NCc2ccccc2)c1`, the AC40 is 0.689 µM.

For the molecule `C/C=C(/C)C(=O)O[C@@H]1c2cc(OC)c(OC)c(OC)c2-c2c(cc3c(c2OC)OCO3)C[C@H](C)[C@]1(C)O`, the AC40 was 1.48 µM.

`Nc1c(C(=O)Nc2ccccc2)sc2ncc([N+](=O)[O-])cc12`: the AC40 is 1.06 µM.

For the molecule `CC(=O)c1ccc(NC(=O)N2CCc3ccccc3C2)cc1`, the AC40 was 0.412 µM.

For the molecule `COc1ccccc1-c1ccc2c(c1)C(C)(Cc1ccc(OC(F)(F)F)cc1)C(=O)N2` (stereo not drawn), the AC40 is 2.47 µM.

Take `COc1ccc(-n2nnnc2CNC(=O)c2ccc3ccccc3c2)cc1`: the AC40 was 6.36 µM.

`CCOc1ccc(NC(=O)CN2CCC(n3cnc4cc(F)ccc43)CC2)cc1`: the AC40 is 2.84 µM.

`O=C(CSc1nnc(Cn2cnc3ccccc32)o1)c1ccccc1`: the AC40 is 7.68 µM.

`C=C/C=C/[C@@H]1C(=C)CN2[C@H]1[C@H](Cc1ccccc1)OC(=O)[C@@H]2Cc1ccccc1`: the AC40 is 11.6 µM.

For the molecule `COc1ccc(-c2csc3nc(C)nc(N4CCC(C)CC4)c23)cc1OC`, the AC40 was 3.8 µM.

In the case of `CC1(C)CCCN(C(=O)N2c3ccccc3Sc3ccccc32)C1`, the AC40 was 1.33 µM.

As for `COc1cc(OC)c2c(-c3cccc(-c4cccc(C)c4)c3)cc(=O)oc2c1`, the AC40 was 1.56 µM.

Consider `CCOc1ccc(S(=O)(=O)N2c3ccccc3CC2C)cc1` (stereo not drawn), for which the AC40 was 11.5 µM.

As to `CCOc1ccc(-c2nnn(CC#N)n2)cc1OC`, the AC40 is 1.96 µM.

As for `O=C(c1cc(C2CC2)on1)N1CCCC(N2CCN(c3cccc(C(F)(F)F)c3)CC2)C1` (stereo not drawn), the AC40 was 10.8 µM.

As to `CCN(CC)CCNC(=O)c1ccc2c(c1NCCO)C(=O)c1ccccc1C2=O`, the AC40 is 14.6 µM.

Turning to `COc1ccc(NC(=O)c2sccc2SCc2cccc(C(F)(F)F)c2)cc1`, the AC40 is 4.18 µM.

Consider `CCN(CC)C(=O)CSc1nnc2nnc3cc(Cl)ccc3n12`, for which the AC40 is 17.9 µM.

With `COc1ccc(C(C)(O)c2nc(-c3ccc(S(C)(=O)=O)cc3)cs2)cc1` (stereo not drawn), the AC40 is 7.7 µM.

Regarding `Cc1ccc(S(=O)(=O)CCSC(=N)N)cc1`, the AC40 is 5.17 µM.

For the molecule `COc1ccc(C(c2nnnn2C2CCCCC2)N2CCC3(CC2)C(=O)NCN3c2ccccc2)cc1` (stereo not drawn), the AC40 is 3.46 µM.

Take `C[C@@H]1CN([C@H](C)CO)C(=O)c2c(c3ccccc3n2C)-c2ccccc2CO[C@@H]1CN(C)C(=O)[C@H](C)c1ccccc1`: the AC40 was 3.36 µM.

`COc1ccc(NC(=O)C(=O)NCCC2CCCCN2S(=O)(=O)c2cccs2)cc1` (stereo not drawn): the AC40 was 17.9 µM.

In the case of `CCOC(=O)C1=CC[C@@H](c2ccc(OC)cc2)N(S(=O)(=O)c2ccc(C)cc2)[C@H]1CC`, the AC40 was 3.36 µM.

With `CCOC(=O)c1sc2nc(C)nc(NCc3ccccc3OC)c2c1C`, the AC40 was 3.12 µM.

`COc1cc(NC(=O)c2cccs2)c(OC)cc1NC(=O)CCC(=O)Nc1ccc2ncccc2c1`: the AC40 is 0.785 µM.

As for `CNC(=O)c1cccn(Cc2ccc(C(F)(F)F)cc2)c1=O`, the AC40 was 17.5 µM.

Turning to `COc1cc2cc(-c3ccc(O)cc3O)nc(C)c2cc1OC`, the AC40 was 19.3 µM.

`OCc1ccc2c(c1)c(-c1ccc3c(c1)OCCO3)c(-c1ccccc1)n2-c1ccccc1`: the AC40 was 0.184 µM.

On to `COC(=O)[C@H](Cc1ccccc1)N(C)S(=O)(=O)c1cccc(S(=O)(=O)N(C)[C@@H](Cc2ccccc2)C(=O)OC)c1`, for which the AC40 was 9.66 µM.

Take `O=C(Nc1cccnc1)c1ccc(Oc2ccccc2)cc1`: the AC40 was 2.19 µM.

With `COc1ccc(Cc2nc(-c3ccc(NC(=O)c4cccnc4)cc3)no2)cc1`, the AC40 was 0.991 µM.

As for `COCCCn1c(N)c(C(=O)Nc2ccccc2)c2nc3ccccc3nc21`, the AC40 is 1.18 µM.

Turning to `Cc1ccc2[nH]cc(C(=O)CN3CCN(c4ccccc4F)CC3)c2c1`, the AC40 was 2.99 µM.

For the molecule `COc1ccccc1OCC(=O)Nc1ccc(Cl)cc1C(=O)c1ccccc1`, the AC40 is 7.29 µM.

Consider `COc1ccccc1-c1ccc(C2[C@@H]3CN(S(=O)(=O)c4ccc(C)cc4)C[C@H]2N3)cc1` (stereo partly drawn), for which the AC40 is 19.7 µM.

In the case of `COc1ccc(OC(=O)N(C)C[C@H]2OCc3ccccc3-c3c(n(C)c4ccccc34)C(=O)N([C@@H](C)CO)C[C@H]2C)cc1`, the AC40 was 6.72 µM.

On to `CC(C)(C)c1ccc(C(=O)Nc2ccc(C(=O)NCc3cccnc3)cc2)cc1`, for which the AC40 is < 0.16 µM.

Turning to `CCC(=O)Nc1ccc(C(=O)Cn2ncc(Cl)c(Cl)c2=O)cc1`, the AC40 is 1.63 µM.

Consider `CCCOc1ccc(C(=O)Nc2cccnc2)cc1`, for which the AC40 is 2.52 µM.

Regarding `CCN1CCN(c2cc(C)c3cc(NC(=O)c4ccc(Br)o4)ccc3n2)CC1`, the AC40 is 8.23 µM.

Consider `COc1ccccc1-c1ccc(C2[C@@H]3CN(Cc4cccc(F)c4)C[C@H]2N3)cc1` (stereo partly drawn), for which the AC40 is 7.21 µM.

With `CCCCC(=O)Nc1ccc(NC(=O)c2cccs2)cn1`, the AC40 is 18.9 µM.

As to `O=C(Cc1ccccc1)N1CCN(C(=O)c2cccs2)CC1`, the AC40 is 10 µM.

On to `O=C1CC(Sc2nnc(-c3ccccc3O)o2)C(=O)N1c1ccccc1` (stereo not drawn), for which the AC40 was 7.23 µM.

As for `O=C(CN1CCC(n2nnc3ccccc32)CC1)NCc1cccs1`, the AC40 is 1.67 µM.

With `CCO[C@H]1OC(C(=O)N2CCCCCCC2)=C[C@@H](C2CCCCC2)[C@@H]1CCCO`, the AC40 is 1.96 µM.

Take `O=C(Nc1c(F)cccc1F)c1ccc(-n2cncn2)nc1`: the AC40 is 9.12 µM.

Turning to `C=CCS(=O)(=O)c1nc2ccccc2s1`, the AC40 is 2.99 µM.

Take `COc1cccc(CN2C[C@@H]3N[C@H](C2)C3c2ccc(-c3ccccc3F)cc2)c1` (stereo partly drawn): the AC40 was 16.3 µM.

As for `COc1ccc(S(=O)(=O)N(Cc2ccccc2)Cc2nc(-c3ccccc3)no2)cc1`, the AC40 is 8.22 µM.

Turning to `COc1ccc2nc3c(cc2c1)c(NC(=O)c1cccs1)nn3CC(C)C`, the AC40 is 5.35 µM.

With `CCc1nnc(NC(=O)Cc2ccc(S(=O)(=O)N3CCCCC3)cc2)s1`, the AC40 was 16.6 µM.

On to `CCOC(=O)C1=CC[C@@H](c2ccc([N+](=O)[O-])cc2)N(S(=O)(=O)c2ccc(C)cc2)[C@H]1c1ccccc1`, for which the AC40 was 5.13 µM.

As to `COc1ccc(NC(=O)N2CCN(c3ccc([N+](=O)[O-])cc3)CC2)cc1`, the AC40 is 1.52 µM.

Turning to `COc1ccc([C@H]2/C=C\CN(S(=O)(=O)/C=C/c3ccccc3)[C@@H](C)C(=O)N2Cc2ccc(F)cc2)cc1`, the AC40 is 5.99 µM.

As for `CCOC(=O)c1c(C)n(C)c2ccc(OCC(O)Cn3nc(C)c(Br)c3C)cc12` (stereo not drawn), the AC40 was 0.556 µM.

For `Cc1c(C(=O)NCCSCc2c(F)cccc2Cl)cnn1-c1ccc(Cl)cc1`, the AC40 was 10.5 µM.

In the case of `COC(=O)c1cc2ccsc2n1CC(=O)Nc1cc(Cl)ccc1OC`, the AC40 is 7.88 µM.

Regarding `O=C(CSc1nc2c(sc3ccccc32)c(=O)n1CCc1ccccc1)NCc1ccco1`, the AC40 is 18.1 µM.

In the case of `O=C(COc1ccc([N+](=O)[O-])cc1)Nc1ccc(C(=O)NCc2cccnc2)cc1`, the AC40 was 0.283 µM.
